# Source: paper PMC3226492, “Isomer Profiles of Perfluorochemicals in Matched Maternal, Cord, and House Dust Samples: Manufacturing Sources and Transplacental Transfer” (Environmental Health Perspectives, 2011)
# Where two headings read alike, the source gives them in different places.
# Tests used:
# [1] = Transplacental transfer efficiency (TTE): cord serum at delivery divided by maternal serum concentration, present study; format: in vivo, human; details: for TTE calculated from cord:maternal serum concentrations, arithmetic mean / TTE calculated from cord:maternal serum concentrations, maximum / TTE calculated from cord:maternal serum concentrations, median / TTE calculated from cord:maternal serum concentrations, minimum: cord serum at delivery / maternal serum at 15 weeks of gestation; for Mean cord:maternal serum concentration: Present study
# [2] = Total PFC concentrations in maternal and cord sera by HPLC-MS/MS; format: in vivo, human; details: for mean concentration in cord serum: cord serum at delivery
# Method: Blood collection. Samples (n = 20) analyzed in this study are a subset of the Chemicals, Health and Pregnancy (CHirP) cohort recruited in 2007–2008 in Vancouver (BC, Canada) ([Webster et al. 2011]). All participants provided informed consent. Laboratory personnel collected blood samples from pregnant volunteers in Vancouver at 15 weeks of gestation, and samples of cord blood (n = 20) were collected at delivery. After serum separation, all samples were stored at –80°C. Ethical clearance was obtained from the research ethics boards of the University of British Columbia, the University of Alberta, Health Canada, and the three participating hospitals.
# Serum preparation. The method of [Kuklenyik et al. (2004)] was adapted for the extraction of PFCs from serum using a Rapid Trace system (Caliper Life Sciences, Hopkinton, MA, USA). The solid-phase extraction cartridge (Oasis-HLB, Waters, Milford, MA, USA; 60 mg/3 mL) was conditioned with 2 mL methanol followed by 2 mL of 0.1 M formic acid. Serum was prepared for extraction by mixing 3 mL of 0.1 M formic acid with 1.0 mL serum. After the addition of mass-labeled internal standards (10 ng each), the mixture was vortexed and sonicated for 20 min. Prepared serum was added to the column and washed successively with 3 mL of 0.1 M formic acid, 6 mL of 50% 0.1 M formic acid/50% methanol, and 1 mL of 1% ammonium hydroxide. The cartridge was drained by vacuum, and PFCs were eluted with 1.0 mL of 1% ammonium hydroxide in acetonitrile. The eluate was concentrated to 100 μL followed by the addition of 200 μL of 90% 20 mM acetic acid in 10% methanol. Method blanks containing calf serum, a calf serum sample spiked at 0.5 ng/mL of each PFC, and a human serum sample spiked at 10 ng/mL were analyzed with the study samples.
# Total PFC analysis. For total PFC concentrations, separation was by HPLC on a 150-mm Synergi Hydro-RP C-18 column (Phenomenex, Torrance, CA, USA). Gradient elution at 600 μL/min used A [20 mM ammonium acetate (pH 4) in water] and B (methanol) mobile phases. Initial conditions were 60% A for 1 min, ramped to 20% A by 3 min, a 5-min hold, an increase to 100% B by 8.5 min, and a hold until 14 min, at which time initial conditions were reestablished. MS/MS data were collected on an Applied Biosystems API 3000 mass spectrometer (Applied Biosystems, Carlsbad, CA, USA) using electrospray ionization in negative-ion mode [for mean recoveries of total PFCs in serum and dust, see Supplemental Material, Table 1 (http://dx.doi.org/10.1289/ehp.1003265)].
# [3] = cited from earlier work
# [4] = maternal serum, 15 weeks of gestation
# [5] = Canada, 2004–2005, n 101, ref Monroy et al. 2008
# [6] = Denmark, 1996–2002, n 50, maternal serum sampled in the first trimester, ref Fei et al. 2007
# [7] = Denmark, 1996–2002, n 50, maternal serum sampled in the second trimester, ref Fei et al. 2007
# [8] = Faroe Islands, 2000, n 12, ref Needham et al. 2011
# [9] = Germany, 2003, n 11, ref Midasch et al. 2007
# [10] = Germany, 2007–2009, n 27, ref Fromme et al. 2010
# [11] = Korea, 2007, n 20, ref Kim et al. 2011
# [12] = South Africa, 2005–2006, n 58, ref Hanssen et al. 2010
# [13] = Canada, 2007, n 20, maternal serum sampled in the second trimester
# [14] = TTE adjusted from 15 weeks to time of delivery (~ 40 weeks) using data from Monroy et al. (2008)
SMILES,"TTE calculated from cord:maternal serum concentrations, arithmetic mean [1]","TTE calculated from cord:maternal serum concentrations, maximum [1]","TTE calculated from cord:maternal serum concentrations, median [1]","TTE calculated from cord:maternal serum concentrations, minimum [1]",further results
O=S(=O)(O)C(F)(C(F)(F)F)C(F)(F)C(F)(F)C(F)(F)C(F)(F)C(F)(F)C(F)(F)F (stereo not shown) [1m-PFOS],0.87,1.24,0.88,0.36,
O=C(O)C(F)(F)C(F)(C(F)(F)F)C(F)(F)C(F)(F)C(F)(F)C(F)(F)F (stereo not shown) [3m-PFOA],0.76,,0.68,0.07,
O=S(=O)(O)C(F)(F)C(F)(F)C(F)(C(F)(F)F)C(F)(F)C(F)(F)C(F)(F)C(F)(F)F (stereo not shown) [3m-PFOS],0.67,1.12,0.68,0.21,
O=C(O)C(F)(F)C(F)(F)C(F)(C(F)(F)F)C(F)(F)C(F)(F)C(F)(F)F (stereo not shown) [4m-PFOA],0.64,1.29,0.68,0.09,"TTE calculated from cord:maternal serum concentrations, maximum ([1]; listed as 4m-PFOA): > 1.0"
O=S(=O)(O)C(F)(F)C(F)(F)C(F)(F)C(F)(C(F)(F)F)C(F)(F)C(F)(F)C(F)(F)F (stereo not shown) [4m-PFOS],0.55,0.85,0.52,0.20,
O=C(O)C(F)(F)C(F)(F)C(F)(F)C(F)(C(F)(F)F)C(F)(F)C(F)(F)F (stereo not shown) [5m-PFOA],0.86,2.26,0.54,0.09,"TTE calculated from cord:maternal serum concentrations, maximum ([1]; listed as 5m-PFOA): > 1.0"
O=S(=O)(O)C(F)(F)C(F)(F)C(F)(F)C(F)(F)C(F)(C(F)(F)F)C(F)(F)C(F)(F)F (stereo not shown) [5m-PFOS],0.53,0.93,0.52,0.25,
O=S(=O)(O)C(F)(F)C(F)(F)C(F)(F)C(F)(F)C(F)(F)C(F)(C(F)(F)F)C(F)(F)F [Iso- PFOS],0.36,0.60,0.34,0.09,
O=C(O)C(F)(F)C(F)(F)C(F)(F)C(F)(F)C(F)(C(F)(F)F)C(F)(F)F [Iso-PFOA],0.84,2.56,0.67,0.16,
"O=C(O)C(F)(F)C(F)(F)C(F)(F)C(F)(F)C(F)(F)C(F)(F)C(F)(F)C(F)(F)C(F)(F)F [Total PFDA, perfluorodecanoate]",0.34,1.10,0.23,0.00,"mean concentration in cord serum [2]: 0.1 ng/mL; mean concentration in maternal serum [2, 4]: 0.4 ng/mL"
"O=S(=O)(O)C(F)(F)C(F)(F)C(F)(F)C(F)(F)C(F)(F)C(F)(F)F [Total PFHxS, perfluorohexane sulfonate]",0.41,0.56,0.38,0.29,"mean concentration in cord serum [2]: 0.7 ng/mL; concentration at 15 weeks of gestation ([2]; female, human, maternal serum, 15 weeks of gestation): 1.7 ng/mL"
"O=C(O)C(F)(F)C(F)(F)C(F)(F)C(F)(F)C(F)(F)C(F)(F)C(F)(F)C(F)(F)F [Total PFNA, perfluorononanoate]",0.41,0.78,0.38,0.13,"mean concentration in cord serum [2]: 0.4 ng/mL; mean concentration in maternal serum [2, 4]: 0.9 ng/mL"
"O=C(O)C(F)(F)C(F)(F)C(F)(F)C(F)(F)C(F)(F)C(F)(F)C(F)(F)F [Total PFOA, perfluorooctanoate]",0.61,0.96,0.63,0.32,"mean concentration in cord serum [2]: 1.1 ng/mL; mean concentration in maternal serum [2, 4]: 1.8 ng/mL; Mean cord:maternal serum concentration [3, 5]: 0.81; Mean cord:maternal serum concentration [3, 6]: 0.55; Mean cord:maternal serum concentration [3, 7]: 0.68; Mean cord:maternal serum concentration [3, 8]: 0.72; Mean cord:maternal serum concentration [3, 9]: 1.26; Mean cord:maternal serum concentration [3, 10]: 0.70; Mean cord:maternal serum concentration [3, 11]: 0.69; Mean cord:maternal serum concentration [3, 12]: 0.71; Mean cord:maternal serum concentration [1, 13]: 0.61; Mean cord:maternal serum concentration [1, 14]: 0.71"
"O=S(=O)(O)C(F)(F)C(F)(F)C(F)(F)C(F)(F)C(F)(F)C(F)(F)C(F)(F)C(F)(F)F [Total PFOS, perfluorooctane sulfonate]",0.33,0.53,0.31,0.20,"mean concentration in cord serum [2]: 1.8 ng/mL; mean concentration in maternal serum [2, 4]: 5.5 ng/mL; Mean cord:maternal serum concentration [3, 5]: 0.45; Mean cord:maternal serum concentration [3, 6]: 0.29; Mean cord:maternal serum concentration [3, 7]: 0.34; Mean cord:maternal serum concentration [3, 8]: 0.34; Mean cord:maternal serum concentration [3, 9]: 0.60; Mean cord:maternal serum concentration [3, 10]: 0.30; Mean cord:maternal serum concentration ([3]; Japan, 2003, n 15, ref Inoue et al. 2004): 0.32; Mean cord:maternal serum concentration [3, 11]: 0.36; Mean cord:maternal serum concentration [3, 12]: 0.45; Mean cord:maternal serum concentration [1, 13]: 0.33; Mean cord:maternal serum concentration [1, 14]: 0.36"
O=C(O)C(F)(F)C(F)(F)C(F)(F)C(F)(F)C(F)(F)C(F)(F)C(F)(F)F [n-PFOA],0.62,1.00,0.61,0.26,
"O=S(=O)(O)C(F)(F)C(F)(F)C(F)(F)C(F)(F)C(F)(F)C(F)(F)C(F)(F)C(F)(F)F [n-PFOS, linear perfluorooctane sulfonate]",0.33,0.58,0.30,0.10,
O=C(O)C(F)(F)C(F)(F)C(F)(F)C(C(F)(F)F)(C(F)(F)F)C(F)(F)F [tb-PFOA],0.25,0.48,0.25,0.02,
